According to BindingDB's records for doi:10.1021/jm400638v (The University of Queensland, 2013):
Where a SMILES comes first, the peptide text is derived from it. The star is where a group is joined. Palmitoyl = CCCCCCCCCCCCCCCC(=O)*

Assay: Agonist activity at […] in human platelets by platelet aggregation assay in presence of SFLLRN

- EC50: 8 µM
SMILES: CCCCCCCCCCCCCCCC(=O)N[C@@H](CCCN=C(N)N)C(=O)N[C@@H](CS)C(=O)N[C@@H](CC(C)C)C(=O)N[C@@H](CO)C(=O)N[C@@H](CO)C(=O)N[C@@H](CO)C(=O)N[C@@H](C)C(=O)N[C@H](C(=O)N[C@@H](C)C(=O)N[C@@H](CC(N)=O)C(=O)N[C@@H](CCCN=C(N)N)C(=O)N[C@@H](CO)C(=O)N[C@@H](CCCCN)C(=O)N[C@@H](CCCCN)C(=O)N[C@@H](CO)C(=O)N[C@@H](CCCN=C(N)N)C(=O)N[C@@H](CC(C)C)C(=O)N[C@@H](Cc1ccccc1)C(=O)O)C(C)C (Palmitoyl-RCLSSSAVANRSKKSRLF-OH)
